Among the data in patent US12486267B2, “Imidazo[1,2-A]pyridine and [1,2,4]triazolo[1,5-A]pyridine derivatives as TLR9 inhibitors for the treatment of fibrosis” (BRISTOL-MYERS SQUIBB COMPANY, priority 2020, dated 2025) are IC50 values, retold here.

Holding throughout (assay type): cell-based
One test concerns the target T1, human TLR7 (Homo sapiens, UniProt Q9NYK1).
T1 sequence (Q9NYK1 27-1049): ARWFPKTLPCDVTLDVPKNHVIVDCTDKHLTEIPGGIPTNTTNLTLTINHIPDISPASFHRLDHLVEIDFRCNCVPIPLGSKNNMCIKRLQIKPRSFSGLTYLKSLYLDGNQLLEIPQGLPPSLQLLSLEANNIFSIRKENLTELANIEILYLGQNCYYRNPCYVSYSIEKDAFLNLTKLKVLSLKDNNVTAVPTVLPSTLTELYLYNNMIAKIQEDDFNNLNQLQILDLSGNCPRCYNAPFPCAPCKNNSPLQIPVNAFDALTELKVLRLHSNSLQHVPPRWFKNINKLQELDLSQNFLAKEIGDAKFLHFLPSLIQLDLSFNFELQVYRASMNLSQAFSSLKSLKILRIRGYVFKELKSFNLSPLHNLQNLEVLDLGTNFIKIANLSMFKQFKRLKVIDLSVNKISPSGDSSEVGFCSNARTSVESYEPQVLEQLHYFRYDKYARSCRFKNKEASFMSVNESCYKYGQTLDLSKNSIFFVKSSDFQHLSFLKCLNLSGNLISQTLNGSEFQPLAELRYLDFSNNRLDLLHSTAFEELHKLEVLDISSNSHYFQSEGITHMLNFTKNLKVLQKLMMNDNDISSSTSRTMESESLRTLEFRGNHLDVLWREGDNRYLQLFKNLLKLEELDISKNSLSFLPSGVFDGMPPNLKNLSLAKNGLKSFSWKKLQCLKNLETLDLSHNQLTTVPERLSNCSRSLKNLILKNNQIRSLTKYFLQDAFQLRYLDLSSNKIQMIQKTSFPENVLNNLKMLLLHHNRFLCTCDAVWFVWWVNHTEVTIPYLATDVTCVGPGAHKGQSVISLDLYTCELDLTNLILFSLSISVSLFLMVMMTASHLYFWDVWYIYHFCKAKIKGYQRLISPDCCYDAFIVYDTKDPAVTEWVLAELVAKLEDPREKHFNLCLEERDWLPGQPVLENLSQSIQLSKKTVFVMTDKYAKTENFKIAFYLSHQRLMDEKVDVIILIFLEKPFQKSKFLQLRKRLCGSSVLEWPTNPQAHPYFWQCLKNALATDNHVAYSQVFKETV
Kind of test: TLR7 inhibition reporter assay (HEK-Blue cells, SEAP reporter). As to conditions: HEK-Blue cells overexpressing human TLR7; stimulated with gardiquimod 7.5 μM; 22 hour incubation; SEAP readout. The procedure, abridged: (§1)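 HEK-Blue cells with an NF-κB/AP-1-driven SEAP reporter were pre-treated 30 min at room temperature with compound (0.05 nM–50 μM), then stimulated with gardiquimod 7.5 μM (TLR7), R848 15.9 μM (TLR8) or ODN2006 5 nM (TLR9). After 22 h at 37 °C, SEAP was read; % inhibition was referenced to agonist+DMSO and known-inhibitor wells.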
(Reporter assays use an easily measured gene product as a stand-in for the process of interest.)

The next test deals with T2, human TLR9 (Homo sapiens, UniProt Q9NR96).
T2 sequence (Q9NR96 26-1032): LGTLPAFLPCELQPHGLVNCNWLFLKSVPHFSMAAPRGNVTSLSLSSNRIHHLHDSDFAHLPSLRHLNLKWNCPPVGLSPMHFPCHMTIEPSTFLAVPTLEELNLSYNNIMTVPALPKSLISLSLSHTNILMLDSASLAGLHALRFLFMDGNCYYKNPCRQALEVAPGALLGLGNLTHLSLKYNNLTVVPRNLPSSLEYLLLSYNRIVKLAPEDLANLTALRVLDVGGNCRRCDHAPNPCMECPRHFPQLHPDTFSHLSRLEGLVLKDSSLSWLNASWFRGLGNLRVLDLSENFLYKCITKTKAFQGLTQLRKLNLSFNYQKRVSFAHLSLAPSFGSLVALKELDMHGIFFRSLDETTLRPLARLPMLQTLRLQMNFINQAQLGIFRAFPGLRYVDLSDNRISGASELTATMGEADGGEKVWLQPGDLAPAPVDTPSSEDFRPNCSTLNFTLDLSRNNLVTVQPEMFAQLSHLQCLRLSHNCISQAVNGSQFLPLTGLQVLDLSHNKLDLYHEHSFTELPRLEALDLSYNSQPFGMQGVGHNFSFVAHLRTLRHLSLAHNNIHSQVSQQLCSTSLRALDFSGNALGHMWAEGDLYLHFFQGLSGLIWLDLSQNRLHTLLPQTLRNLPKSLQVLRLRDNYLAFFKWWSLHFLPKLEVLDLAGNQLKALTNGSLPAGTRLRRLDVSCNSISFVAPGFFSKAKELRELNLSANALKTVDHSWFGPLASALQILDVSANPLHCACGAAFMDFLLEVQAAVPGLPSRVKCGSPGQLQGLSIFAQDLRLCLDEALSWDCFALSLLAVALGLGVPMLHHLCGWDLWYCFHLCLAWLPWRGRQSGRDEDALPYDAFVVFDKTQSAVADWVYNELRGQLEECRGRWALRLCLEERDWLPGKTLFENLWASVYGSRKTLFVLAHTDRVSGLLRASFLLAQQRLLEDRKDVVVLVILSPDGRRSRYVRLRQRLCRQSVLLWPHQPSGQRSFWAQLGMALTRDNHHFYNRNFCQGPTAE
Kind of test: TLR9 inhibition reporter assay (HEK-Blue cells, SEAP reporter). The following applies: HEK-Blue cells overexpressing human TLR9; stimulated with ODN2006 5 nM; 22 hour incubation; SEAP readout. The method in brief:
as §1

The next test deals with T3, human TLR8 (Homo sapiens, UniProt Q9NR97).
T3 sequence (Q9NR97 27-1041): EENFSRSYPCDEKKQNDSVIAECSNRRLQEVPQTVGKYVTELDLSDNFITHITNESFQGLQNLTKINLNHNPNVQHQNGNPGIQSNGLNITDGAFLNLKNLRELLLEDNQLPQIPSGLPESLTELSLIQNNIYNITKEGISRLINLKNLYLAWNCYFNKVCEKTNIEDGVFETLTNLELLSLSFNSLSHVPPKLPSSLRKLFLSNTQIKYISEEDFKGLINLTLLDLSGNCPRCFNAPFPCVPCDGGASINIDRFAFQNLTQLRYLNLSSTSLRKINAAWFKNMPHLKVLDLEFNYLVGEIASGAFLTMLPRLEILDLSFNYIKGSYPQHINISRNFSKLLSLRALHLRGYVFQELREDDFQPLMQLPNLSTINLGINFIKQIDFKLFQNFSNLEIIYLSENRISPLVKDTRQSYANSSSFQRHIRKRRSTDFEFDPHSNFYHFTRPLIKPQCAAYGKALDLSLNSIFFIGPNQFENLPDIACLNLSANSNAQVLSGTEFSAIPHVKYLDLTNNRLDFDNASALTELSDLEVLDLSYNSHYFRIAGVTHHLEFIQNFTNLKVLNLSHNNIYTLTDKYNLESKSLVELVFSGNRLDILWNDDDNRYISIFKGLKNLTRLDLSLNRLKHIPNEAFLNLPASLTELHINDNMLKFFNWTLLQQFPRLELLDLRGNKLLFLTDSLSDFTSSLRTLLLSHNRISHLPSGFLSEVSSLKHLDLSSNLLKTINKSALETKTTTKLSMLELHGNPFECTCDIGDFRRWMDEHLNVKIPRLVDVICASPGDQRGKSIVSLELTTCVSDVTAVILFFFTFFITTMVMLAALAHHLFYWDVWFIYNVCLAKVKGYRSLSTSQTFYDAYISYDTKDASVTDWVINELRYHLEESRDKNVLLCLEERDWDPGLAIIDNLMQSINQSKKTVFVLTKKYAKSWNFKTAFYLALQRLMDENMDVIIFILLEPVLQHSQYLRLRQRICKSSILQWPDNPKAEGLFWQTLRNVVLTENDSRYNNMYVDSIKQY
The test is described as follows: TLR8 inhibition reporter assay (HEK-Blue cells, SEAP reporter). The following applies: HEK-Blue cells overexpressing human TLR8; stimulated with R848 15.9 μM; 22 hour incubation; SEAP readout. The procedure, abridged:
as §1

With `COc1ccc(-c2cn3cc(C4CCN(C5CCN(CC(C)C)CC5)CC4)ccc3n2)cc1OC` [Example 12, 2-(3,4-dimethoxyphenyl)-6-(1′-isobutyl-[1,4′-bipiperidin]-4-yl)imidazo[1,2-a]pyridine], the IC50 was 2700 nM against human TLR7, 122 nM against human TLR9 and more than 50000 nM against human TLR8.

As to `COc1ccc(-c2cn3cc(C4CCN(C5CC6(C5)CN(C(C)C)C6)CC4)cc(C)c3n2)cc1OC` [Example 13, 2-(3,4-dimethoxyphenyl)-6-(1-(2-isopropyl-2-azaspiro[3.3]heptan-6-yl)piperidin-4-yl)-8-methylimidazo[1,2-a]pyridine], the IC50 against human TLR7 is 47000 nM; at human TLR9, 163 nM; at human TLR8 it was more than 50000 nM.

As for `COc1ccc(-c2cn3cc(C4CCN(C5CC6(C5)CN(C5CCC5)C6)CC4)cc(C)c3n2)cc1OC` [Example 14, 6-(1-(2-cyclobutyl-2-azaspiro[3.3]heptan-6-yl)piperidin-4-yl)-2-(3,4-dimethoxyphenyl)-8-methylimidazo[1,2-a]pyridine], the IC50 is more than 50000 nM on human TLR7, 68 nM against human TLR9 and more than 50000 nM at human TLR8.

For the compound `COc1ccc(-c2cn3cc(C4CCN(C5CC6(C5)CN(CC(C)C)C6)CC4)cc(C)c3n2)cc1OC` [Example 15, 2-(3,4-dimethoxyphenyl)-6-(1-(2-isobutyl-2-azaspiro[3.3]heptan-6-yl)piperidin-4-yl)-8-methylimidazo[1,2-a]pyridine], the IC50 against human TLR7 was 46000 nM; at human TLR9 it was 47 nM; against human TLR8 it was more than 50000 nM.

In the case of `COc1ccc(-c2cn3cc(C4CCN(C5CC6(C5)CN(CC5CC5)C6)CC4)cc(C)c3n2)cc1OC` [Example 16, 6-(1-(2-(cyclopropylmethyl)-2-azaspiro[3.3]heptan-6-yl)piperidin-4-yl)-2-(3,4-dimethoxyphenyl)-8-methylimidazo[1,2-a]pyridine], the figures for the half-maximal inhibitory concentration (IC50) against human TLR7, against human TLR9 and at human TLR8 were 2000 nM, 14 nM and more than 50000 nM, respectively.

In the case of `COc1ccc(-c2cn3cc(C4CCN(C5CC6(C5)CN(C5CC5)C6)CC4)cc(C)c3n2)cc1OC` [Example 17, 6-(1-(2-cyclopropyl-2-azaspiro[3.3]heptan-6-yl)piperidin-4-yl)-2-(3,4-dimethoxyphenyl)-8-methylimidazo[1,2-a]pyridine], the IC50 on human TLR7 is 2300 nM; against human TLR9, 22 nM; against human TLR8, more than 50000 nM.

For the compound `COc1ccc(-c2nc3cc(C4CCN(C5CCN(C(C)C)CC5)CC4)ccn3n2)cc1OC` [Example 60, 2-(3,4-dimethoxyphenyl)-7-(1′-isopropyl-[1,4′-bipiperidin]-4-yl)-[1,2,4]triazolo[1,5-a]pyridine], the IC50 is 29000 nM at human TLR7, 1100 nM against human TLR9 and more than 50000 nM against human TLR8.

Take `COc1ccc(-c2nc3cc(C4CCN(C5CCN(CC(C)C)CC5)CC4)ccn3n2)cc1OC` [Example 61, 2-(3,4-dimethoxyphenyl)-7-(1′-isobutyl-[1,4′-bipiperidin]-4-yl)-[1,2,4]triazolo[1,5-a]pyridine]: the 50% inhibitory concentration (IC50) on human TLR7 was 11000 nM; against human TLR9 it was 1240 nM; on human TLR8, more than 50000 nM.

In the case of `COc1ccc(-c2cn3cc(-c4ccc(N5CCN(C6COC6)CC5)cc4)cc(C)c3n2)cc1OC` [Example 64, 2-(3,4-dimethoxyphenyl)-8-methyl-6-(4-(4-(oxetan-3-yl)piperazin-1-yl)phenyl) imidazo[1,2-a]pyridine], the IC50 at human TLR7 was more than 25000 nM; at human TLR9 it was 2380 nM; against human TLR8, more than 25000 nM.

`Cc1cc(-c2ccc(N3CCN(C(C)C)CC3)cc2)cn2cc(-c3ccc(S(C)(=O)=O)cc3)nc12` [Example 65, 6-(4-(4-isopropylpiperazin-1-yl)phenyl)-8-methyl-2-(4-(methylsulfonyl)phenyl) imidazo[1,2-a]pyridine]: the IC50 was 4800 nM against human TLR7, 670 nM against human TLR9 and more than 50000 nM at human TLR8.

As to `Cc1cc(C2CCN(C3CCN(C(C)C)CC3)CC2)cc2nc(-c3ccc(S(C)(=O)=O)cc3)cn12` [Example 66, 7-(1′-isopropyl-[1,4′-bipiperidin]-4-yl)-5-methyl-2-(4-(methylsulfonyl)phenyl) imidazo[1,2-a]pyridine], the results for the IC50 on human TLR7, at human TLR9 and against human TLR8 were 14300 nM, 62 nM and more than 50000 nM, respectively.

In the case of `CC(C)N1CCC(N2CCC(c3cc(F)c4nc(-c5ccc(S(C)(=O)=O)cc5)cn4c3)CC2)CC1` [Example 67, 8-fluoro-6-(1′-isopropyl-[1,4′-bipiperidin]-4-yl)-2-(4-(methylsulfonyl)phenyl) imidazo[1,2-a]pyridine], the IC50 against human TLR7 is 19200 nM; against human TLR9, 43 nM; on human TLR8, more than 50000 nM.

For the compound `CC(C)N1CCC(N2CCC(c3cn4cc(-c5ccc(S(C)(=O)=O)cc5)nc4cc3F)CC2)CC1` [Example 70, 7-fluoro-6-(1′-isopropyl-[1,4′-bipiperidin]-4-yl)-2-(4-(methylsulfonyl)phenyl) imidazo[1,2-a]pyridine], the half-maximal inhibitory concentration (IC50) was 22900 nM at human TLR7, 303 nM on human TLR9 and more than 50000 nM on human TLR8.

What is called IC50 is the concentration at which inhibition is half-maximal. Read a low IC50 as higher potency.
